Results as given in patent publication US4073910A, “Method for treatment of diabetes” (Eisai Co., Ltd., priority 1975, dated 1978).
“And” between values parts separate entries of the source, which are not always exact repeats. Equal values may be shown once.

What was measured:
[1] = tested on: blood-sugar amount; settings: reported in 1955; cited from earlier work
[2] = tested on: alloxan diabetic rats; assay: Effect on alloxan diabetes in rats (glycosuria, blood-sugar, urinary volume); assay type: in vivo, male wistar rats; settings: for restraining effect on quantity of glycosuria: Compound TA 80 mg/Kg, Compound NA 20 mg/Kg p.o. once a day for three weeks; for quantity of blood-sugar versus alloxan diabetic control group (in words): FIGS. 3 and 4, after 24 hours and 12 hours fasting; for effect for treatment of alloxan-diabetes (conclusion): alloxan diabetic rats; for blood-sugar level compared with diabetic control group (summary) / quantity of glycosuria compared with diabetic control group (summary) / urinary volume compared with diabetic control group (summary): summary of experiments
Procedure: Experiments were carried out in six-week male wistar rats weighing approximately 180 g. […] After 10 days, animals displaying abnormal quantity of glycosuria were selected as "diabetic" animals. Abnormality was arbitrarily determined as quantity of glycosuria for 24 hours over 0.5 g. Total 32 alloxan diabetic rats were divided into four aliquot groups of every eight rats at random. […] These rats were placed in the metabolism cage equiped with solid foods and drinking water. The foods were removed after 9 hours, and urine was collected from said rats for 24 hours. In other experience, total 45 alloxan diabetic rats were divided into three groups of aliquot. […] These rats were placed in the metabolism cages equiped with drinking water, and urine was collected for 12 hours. Blood was also collected in each case from the carotid artery of the rats under anesthesia. for the urine and the plasma, the following biochemical tests were effected. (a) Quantity of the blood-sugar and the glycosuria: Anthrone method.

[3] = tested on: human diabetics (University Group Diabetes Program); settings: oral administration, 8 years; cited from earlier work
[4] = Test of acute toxicity in rats; assay type: in vivo; settings: rat, in vivo
Procedure: (§1) Acute toxicity of Compound TN for males and females of mice rats were tested.

[5] = tested on: rats; assay: Test of acute toxicity in rats; assay type: in vivo; settings: rats, administerable maximum quantity
Procedure: as §1

[6] = Test of acute toxicity in mice; assay type: in vivo; settings: mouse, in vivo
Procedure: as §1

[7] = tested on: mice; assay: Test of acute toxicity in mice; assay type: in vivo; settings: mice, administerable maximum quantity
Procedure: as §1

[8] = tested on: rats; assay: Test of subacute and chronic toxicity in rats; assay type: in vivo; settings: 100 to 1000 mg/Kg, three or six months
[9] = tested on: beagles; assay: Test of subacute and chronic toxicity in beagles; assay type: in vivo; settings: 100 mg/Kg, three or six months
[10] = tested on: pregnant mice; assay: Test for malformation in pregnant mice; assay type: in vivo; settings: oral, 100 to 1200 mg/Kg
[11] = tested on: pregnant rats; assay: Test for malformation in pregnant rats; assay type: in vivo; settings: oral, 100 to 1200 mg/Kg
[12] = tested on: diabetics; assay: Clinical data: blood sugar and ΔIRI/ΔBS in glucose tolerance test of diabetics; assay type: in vivo, human
Procedure: There were selected 15 diabetics, whose blood-sugar values are 111-150 mg;, respectively. The diabetics are 56.8 years old in average, ranging from 49 to 65 years old. They consist of 10 males and 5 females.
It was previously confirmed that the body weights of the diabetics are almost not varied during the continuation of dietetics.
There were orally administered a daily dose of six capsules for 8 weeks, each capsule containing 100 mg of the Compound TN.
Before and after the administration of the compound of the present invention, 50 g of sugar are orally administered to carry out glucose tolerance test. Quantities of blood-sugar were measured by means of Autoanalyzer with respect to the blood which was collected from the vein of the elbow. Further, quantities of insulin were measured, in accordance with Double antibody technic, before the glucose tolerance and after 30 minutes tolerance. From the following resulting quantities, value of ΔIRI/ΔBS was calculated.

[13] = Solubility; assay type: physicochemical
[14] = FIG. 1, urine for 24 hours, 100 mg/Kg p.o. once a day for three weeks

For CCCCNC(=O)NS(=O)(=O)c1ccc(N)cc1 [Carbutamide], the “effect for depressing a blood-sugar amount” value [1] is listed as “remarkable effect for depressing a blood-sugar amount”.

For O=C(O)c1cccnc1 [Compound NA, nicotinic acid], the “restraining effect on quantity of glycosuria” value ([2]; FIG. 1, urine for 24 hours) was “the restraining effect could not be found”, the “quantity of blood-sugar versus alloxan diabetic control group (in words)” value ([2]; three weeks p.o.) was “there can not be found the differences” and the “effect for treatment of alloxan-diabetes (conclusion)” value (“effect for treatment” for short) ([2]; three weeks p.o.) was “such effect can not be found”. The “blood-sugar level compared with diabetic control group (summary)” value ([2]; three weeks p.o.) was “there could not be found the difference”, the “quantity of glycosuria compared with diabetic control group (summary)” value ([2]; three weeks p.o.) was “there could not be found the difference” and the “urinary volume compared with diabetic control group (summary)” value ([2]; three weeks p.o.) was “there could not be found the difference”.

For CCCCNC(=O)NS(=O)(=O)c1ccc(C)cc1 [Tolbutamide], the “number of deaths due to heart-blood vessel disorder, compared with placebo group” value [3] is listed as 2.5 times.

With CC(=O)Oc1c(C)c(C)c2c(c1C)CCC(C)(CCCC(C)CCCC(C)CCCC(C)C)O2 (racemic) [Compound TA, dl-α-tocopheryl acetate] the “restraining effect on quantity of glycosuria” value ([2]; FIG. 1, urine for 24 hours) was “the restraining effect could not be found”, the “quantity of blood-sugar versus alloxan diabetic control group (in words)” value ([2]; three weeks p.o.) was “there can not be found the differences” and the “effect for treatment” value ([2]; three weeks p.o.) was “such effect can not be found”. For the same molecule, the “blood-sugar level compared with diabetic control group (summary)” value ([2]; three weeks p.o.) was “there could not be found the difference”, the “quantity of glycosuria compared with diabetic control group (summary)” value ([2]; three weeks p.o.) was “there could not be found the difference” and the “urinary volume compared with diabetic control group (summary)” value ([2]; three weeks p.o.) was “there could not be found the difference”.

For [H]/N=C(/N)N/C(=N/[H])NCCc1ccccc1 [Phenformin], the “number of deaths due to heart-blood vessel disorder, compared with placebo group” value [3] is given as 2.5 times.

For Cc1c(C)c2c(c(C)c1OC(=O)c1cccnc1)CCC(C)(CCCC(C)CCCC(C)CCCC(C)C)O2 (racemic) [Compound TN, dl-α-tocopherol nicotinate], the LD50 ([4]; im) was greater than 10000 mg/kg, the LD50 ([4]; ip) was greater than 2000 mg/kg and the LD50 ([4]; iv) was greater than 250 mg/kg. For the same molecule, the LD50 ([4]; po) was greater than 15000 mg/kg, the LD50 ([4]; sc) was greater than 15000 mg/kg and the “deaths in acute toxicity test” value [5] was “there is no case wherein the test animals died”. For the same molecule, the LD50 ([6]; im) was greater than 15000 mg/kg, the LD50 ([6]; ip) was greater than 4000 mg/kg and the LD50 ([6]; iv) was greater than 1000 mg/kg. For the same molecule, the LD50 ([6]; po) was greater than 20000 mg/kg, the LD50 ([6]; sc) was greater than 20000 mg/kg and the “deaths in acute toxicity test” value [7] was “there is no case wherein the test animals died”. The “appearance of toxicity (hematological, blood biochemical, histological searches)” value [8] was “there could not be entirely recognized the appearance of the toxicity”, the death case [8] was “There could not be found the death case” and the restraint of weight [8] was “There could not be found the death case and the restraint of weight”. The “appearance of toxicity (hematological, blood biochemical, histological searches)” value [9] was “there could not be entirely recognized the appearance of the toxicity”, the death case [9] was “There could not be found the death case” and the restraint of weight [9] was “There could not be found the death case and the restraint of weight”. For the same molecule, the “effects for mothers, foetuses and neonatal animals” value [10] was “there could not be recognized any effects for mothers, foetuses and neonatal animals”, the malformation [10] was “no malformation could be entirely found” and the “effects for mothers, foetuses and neonatal animals” value [11] was “there could not be recognized any effects for mothers, foetuses and neonatal animals”. For the same molecule, the malformation [11] was “no malformation could be entirely found”, the “reduction of quantity of glycosuria versus diabetic control group (mean)” value [2, 14] was 1.3 g/day and the “reduction of quantity of glycosuria versus diabetic control group (percent)” value [2, 14] was 47%. The quantity of glycosuria ([2]; FIG. 2, urine for 12 hours, p.o. once a day for three weeks, TN 100 mg/Kg or TA 88 + NA 20 mg/Kg, diabetic control 1.24 g/12 hours) was 0.76 g/12 hours, the “quantity of glycosuria versus diabetic control group (in words)” value ([2]; FIG. 2, urine for 12 hours, three weeks p.o.) was “clearly reduced” and the “urinary volume (in words)” value ([2]; FIG. 5, after 12 hours, three weeks p.o.) was “reduces”. The “quantity of blood-sugar versus alloxan diabetic control group (in words)” value ([2]; three weeks p.o.) was “reduces significantly the quantity of the blood-sugar”, the “effect for treatment” value ([2]; three weeks p.o.) was “unique effect for treatment of alloxan-diabetes” and the “blood-sugar level compared with diabetic control group (summary)” value ([2]; three weeks p.o.) was “small such as P = 0.05”. For the same molecule, the “quantity of glycosuria compared with diabetic control group (summary)” value ([2]; three weeks p.o.) was “small such as P = 0.05”, the “urinary volume compared with diabetic control group (summary)” value ([2]; three weeks p.o.) was “small such as P = 0.05” and the degree of adiposity ([12]; 15 diabetics, 8 weeks) was “there could hardly be found a tolerance with respect to the degree of adiposity”. The “Blood Sugar (2) FBS (fasting blood sugar)” value ([12]; individual patient, after administration, 600 mg/day p.o. (six 100 mg capsules) for 8 weeks) was 114 mg% and 126 mg% and 111 mg% and 124 mg% and 122 mg% and 119 mg% and 123 mg% and 104 mg% and 110 mg% and 121 mg% and 118 mg%, the “ΔIRI/ΔBS (30 min.)” value ([12]; individual patient, after administration, 8 weeks, 30 min. tolerance) was 0.39 and 0.31 and 0.38 and 0.36 and 0.41 and 0.33 and 0.42 and 0.45 and 0.44 and 0.35 and 0.49 and the “Blood Sugar (2) 1 hour” value ([12]; individual patient, after administration, 8 weeks, 1 hour after 50 g glucose tolerance) was 196 mg% and 193 mg% and 178 mg% and 198 mg% and 221 mg% and 201 mg% and 205 mg% and 174 mg% and 164 mg% and 211 mg% and 214 mg% and 195 mg% and 185 mg% and 197 mg%. The “Blood Sugar (2) 2 hours” value ([12]; individual patient, after administration, 8 weeks, 2 hours after 50 g glucose tolerance) was 185 mg% and 184 mg% and 164 mg% and 195 mg% and 189 mg% and 178 mg% and 186 mg% and 154 mg% and 179 mg% and 181 mg% and 163 mg% and 172 mg% and 190 mg%, the “Blood Sugar (2) 3 hours” value ([12]; individual patient, after administration, 8 weeks, 3 hours after 50 g glucose tolerance) was 136 mg% and 114 mg% and 121 mg% and 179 mg% and 175 mg% and 154 mg% and 171 mg% and 141 mg% and 105 mg% and 172 mg% and 130 mg% and 153 mg% and the “Blood Sugar (2) 1 hour, mean” value ([12]; mean of 15, after administration, 8 weeks, 1 hour tolerance, before administration 226.5, P<0.05) was 193.1 mg%. The “Blood Sugar (2) 2 hours, mean” value ([12]; mean of 15, after administration, 8 weeks, 2 hours tolerance, before administration 203.7, P<0.05) was 179.3 mg%, the “Blood Sugar (2) 3 hours, mean” value ([12]; mean of 15, after administration, 8 weeks, 3 hours tolerance, before administration 166.1, P<0.05) was 145.5 mg% and the “ΔIRI/ΔBS (30 min.), mean” value ([12]; mean of 15, after administration, 8 weeks, before administration 0.319, P<0.001) was 0.394. The “Blood Sugar (2) FBS, mean” value ([12]; mean of 15 diabetics, after administration, 8 weeks, before administration 128.1, P<0.001) was 116.3 mg%, the “solubility in acetone, benzene, chloroform, ether and ethanol” value ([13]; organic solvents) was “easily soluble” and the solubility in water ([13]; water) was “hardly soluble”.
